Experimental data reported in patent US9221835B2, “Spirocyclic derivatives as antiparasitic agents” (Zoetis Services LLC, priority 2012, dated 2015).
Counter-ions that a name gives are not always drawn.

Tests used:
Format in all cases: in vivo
[1] = tested on: Mosquito (Aedes aeqypti) larvae; assay: Mosquito (Aedes aeqypti) Larval Assay; conditions: first instar larvae, 25° C., 24 hours, lowest dose to inhibit motility ≧50% of untreated controls, half-log intervals, read-out: Minimum Effective Concentration (MEC)
Description: Mosquito (Aedes aeqypti) Larval Assay
Compounds were dissolved in DMSO and aliquots were spotted to empty wells. First instar mosquito larvae and maintenance media were added to the wells to obtain between 8 and 15 larvae per well in the appropriate final assay volume. Larvae were incubated in the treated media at 25° C. for 24 hours. Mosquito larvae motility was measured at 24 hours. Each compound was tested at half-log intervals, and endpoint results were recorded as Minimum Effective Concentration (MEC) in μM. MEC is an objective assessment of organism motility, and is the lowest dose to inhibit motility ≧50% of untreated controls.

[2] = tested on: Flea (Ctenocephalides felis); assay: Flea (Ctenocephalides felis) Membrane Feed Assay-Adult; conditions: adult fleas fed on treated citrated bovine blood for 24 hours, lowest dose to cause mortality ≧50%, half-log intervals, read-out: Minimum Effective Concentration (MEC)
Description: Flea (Ctenocephalides felis) Membrane Feed Assay-Adult
Compounds were dissolved in DMSO and aliquots were added to citrated bovine blood in membrane covered wells warmed to 37° C. Adult fleas were newly emerged (3-7 days) and unfed. Feeding wells containing approximately 10 adult fleas were placed onto the treated blood wells, and the fleas were allowed to feed on the treated blood for 24 hours. […] Each compound was tested at half-log intervals, and endpoint data was recorded as Minimum Effective Concentration in μM. MEC is a subjective visual assessment of organism viability, and is the lowest dose to cause mortality ≧50%.

[3] = tested on: Soft Tick (Ornithidorus turicata); assay: Soft Tick (Ornithidorus turicata) Blood Feed Assay; conditions: nymph stage ticks fed on treated citrated bovine blood; paralysis and/or death observed at approximately 24, 48 and 72 hours
Description: Soft Tick (Ornithidorus turicata) Blood Feed Assay
Compounds of the present invention were dissolved in dimethylsulfoxide (DMSO) and aliquots added to citrated bovine blood in a membrane covered Petri dish. The Petri dish is placed on a warming tray. Approximately 5 nymph stage ticks are placed onto the membrane, covered, and left to feed. Fed ticks are removed and placed into a Petri dish with sand. […] Endpoint data was recorded as a 100% lethal dose (LD^100) in μg/mL.

| SMILES | minimal effective concentration [1] | minimal effective concentration [2] | 100% lethal dose (LD100) [3] |
| --- | --- | --- | --- |
| CC(C)C(=O)N1CC2(C1)OCc1cc(C3=NCC(c4cc(Cl)c(Cl)c(Cl)c4)(C(F)(F)F)C3)ccc12 (stereo not shown) [Example 2, 2-methyl-1-(5′-(3-(3,4,5-trichlorophenyl)-3-(trifluoromethyl)-3,4-dihydro-2H-pyrrol-5-yl)-3′H-spiro[azetidine-3,1′-isobenzofuran]-1-yl)propan-1-one] | 0.1 µM | – | – |
| CS(=O)(=O)CC(=O)N1CC2(C1)OCc1cc(C3=NCC(c4cc(Cl)c(F)c(Cl)c4)(C(F)(F)F)C3)ccc12 (stereo not shown) [Example 3, 1-(5′-(3-(3,5-dichloro-4-fluorophenyl)-3-(trifluoromethyl)-3,4-dihydro-2H-pyrrol-5-yl)-3′H-spiro[azetidine-3,1′-isobenzofuran]-1-yl)-2-(methylsulfonyl)ethanone] | 0.03 µM | – | – |
| CC(C)C(=O)N1CC2(C1)OCc1cc(C3=NCC(c4cc(Cl)c(F)c(Cl)c4)(C(F)(F)F)C3)ccc12 (stereo not shown) [Example 4, 1-(5′-(3-(3,5-dichloro-4-fluorophenyl)-3-(trifluoromethyl)-3,4-dihydro-2H-pyrrol-5-yl)-3′H-spiro[azetidine-3,1′-isobenzofuran]-1-yl)-2-methyl propan-1-one] | 0.1 µM | – | – |
| CS(=O)(=O)CC(=O)N1CC2(C1)OCc1cc(C3=NCC(c4cc(Cl)cc(Cl)c4)(C(F)(F)F)C3)ccc12 (stereo not shown) [Example 5, 1-(5′-(3-(3,5-dichlorophenyl)-3-(trifluoromethyl)-3,4-dihydro-2H-pyrrol-5-yl)-3′H-spiro[azetidine-3,1′-isobenzofuran]-1-yl)-2-(methylsulfonyl)ethanone] | 0.03 µM | 0.3 µM | – |
| CS(=O)(=O)CC(=O)N1CC2(C1)OCc1cc(C3=COC(c4cc(Cl)cc(Cl)c4)(C(F)(F)F)C3)ccc12 (stereo not shown) [Example 7, 5′-[5-(3,5-dichlorophenyl)-5-(trifluoromethyl)-4,5-dihydrofuran-3-yl]-1-[(methylsulfonyl)acetyl]-3′H-spiro[azetidine-3,1′-[2]benzofuran]] | > 3 µM | – | – |
| CC(C)C(=O)N1CC2(C1)OCc1cc(C3=COC(c4cc(Cl)cc(Cl)c4)(C(F)(F)F)C3)ccc12 (stereo not shown) [Example 8, 5′-[5-(3,5-dichlorophenyl)-5-(trifluoromethyl)-4,5-dihydrofuran-3-yl]-1-isobutyryl-3′H-spiro[azetidine-3,1′-[2]benzofuran]] | > 3 µM | – | – |
| CS(=O)(=O)CC(=O)N1CC2(C1)OCc1cc(C3=COC(c4cc(Cl)c(Cl)c(Cl)c4)(C(F)(F)F)C3)ccc12 (stereo not shown) [Example 9, 2-(methylsulfonyl)-1-(5′-(5-(3,4,5-trichlorophenyl)-5-(trifluoromethyl)-4,5-dihydrofuran-3-yl)-3′H-spiro[azetidine-3,1′-isobenzofuran]-1-yl)ethanone] | > 3 µM | – | – |
| CC(C)C(=O)N1CC2(C1)OCc1cc(C3=COC(c4cc(Cl)c(Cl)c(Cl)c4)(C(F)(F)F)C3)ccc12 (stereo not shown) [Example 10] | > 3 µM | – | – |
| CS(=O)(=O)CC(=O)N1CC2(C1)OCc1cc(C3=COC(c4cc(Cl)c(F)c(Cl)c4)(C(F)(F)F)C3)ccc12 (stereo not shown) [Example 11, 5′-[5-(3,5-dichloro-4-fluorophenyl)-5-(trifluoromethyl)-4,5-dihydrofuran-3-yl]-1-[(methylsulfonyl)acetyl]-3′H-spiro[azetidine-3,1′-[2]benzofuran]] | > 3 µM | – | – |
| CC(C)C(=O)N1CC2(C1)OCc1cc(C3=COC(c4cc(Cl)c(F)c(Cl)c4)(C(F)(F)F)C3)ccc12 (stereo not shown) [Example 12, 5′-[5-(3,5-dichloro-4-fluorophenyl)-5-(trifluoromethyl)-4,5-dihydrofuran-3-yl]-1-isobutyryl-3′H-spiro[azetidine-3,1′-[2]benzofuran]] | > 3 µM | – | – |
| CN1N=C(c2ccc3c(c2)COC32CN(C(=O)CS(C)(=O)=O)C2)CC1(c1cc(Cl)c(F)c(Cl)c1)C(F)(F)F (stereo not shown) [Example 14, 1-(5′-(5-(3,5-dichloro-4-fluorophenyl)-1-methyl-5-(trifluoromethyl)-4,5-di hydro-1H-pyrazol-3-yl)-3′H-spiro[azetidine-3,1′-isobenzofuran]-1-yl)-2-(methylsulfonyl)ethanone] | – | ≥ 3 µM | 0.1 µg/mL |
| CC(C)C(=O)N1CC2(C1)OCc1cc(C3=NNC(c4cc(Cl)c(F)c(Cl)c4)(C(F)(F)F)C3)ccc12 (stereo not shown) [Example 15, 1-(5′-(5-(3,5-dichloro-4-fluorophenyl)-5-(trifluoromethyl)-4,5-dihydro-1H-pyrazol-3-yl)-3′H-spiro[azetidine-3,1′-isobenzofuran]-1-yl)-2-methylpropan-1-one] | – | ≥ 3 µM | 0.03 µg/mL |
| CC(C)C(=O)N1CC2(C1)OCc1cc(C3=NN(C)C(c4cc(Cl)c(F)c(Cl)c4)(C(F)(F)F)C3)ccc12 (stereo not shown) [Example 16, 1-(5′-(5-(3,5-dichloro-4-fluorophenyl)-1-methyl-5-(trifluoromethyl)-4,5-dihydro-1H-pyrazol-3-yl)-3′H-spiro[azetidine-3,1′-isobenzofuran]-1-yl)-2-methylpropan-1-one] | – | 1 µM | 0.03 µg/mL |
| CC(C)C(=O)N1CC2(C1)OCc1cc(C3=NNC(c4cc(Cl)c(Cl)c(Cl)c4)(C(F)(F)F)C3)ccc12 (stereo not shown) [Example 17] | – | ≥ 3 µM | – |
| CS(=O)(=O)CC(=O)N1CC2(C1)OCc1cc(C3=NNC(c4cc(Cl)c(Cl)c(Cl)c4)(C(F)(F)F)C3)ccc12 (stereo not shown) [Example 18, 2-(methylsulfonyl)-1-(5′-(5-(3,4,5-trichlorophenyl)-5-(trifluoromethyl)-4,5-dihydro-1H-pyrazol-3-yl)-3′H-spiro[azetidine-3,1′-isobenzofuran]-1-yl)ethanone hydrochloride] | – | ≥ 3 µM | – |
| CC(C)C(=O)N1CC2(C1)OCc1cc(C3=NNC(c4cc(Cl)cc(Cl)c4)(C(F)(F)F)C3)ccc12 (stereo not shown) [Example 19, 1-(5′-(5-(3,5-dichlorophenyl)-5-(trifluoromethyl)-4,5-dihydro-1H-pyrazol-3-yl)-3′H-spiro[azetidine-3,1′-isobenzofuran]-1-yl)-2-methylpropan-1-one hydrochloride] | 0.1 µM | ≥ 3 µM | – |
| CS(=O)(=O)CC(=O)N1CC2(C1)OCc1cc(C3=NNC(c4cc(Cl)cc(Cl)c4)(C(F)(F)F)C3)ccc12 (stereo not shown) [Example 20] | 0.1 µM | ≥ 3 µM | – |
| CC(C)C(=O)N1CC2(C1)OCc1cc(N3CCC(c4cc(Cl)c(F)c(Cl)c4)(C(F)(F)F)C3)ccc12 (stereo not shown) [Example 21] | – | ≥ 3 µM | 0.01 µg/mL |
| CC(C)C(=O)N1CC2(C1)OCc1cc(N3CCC(c4cc(Cl)cc(Cl)c4)(C(F)(F)F)C3)ccc12 (stereo not shown) [Example 24] | > 3 µM | ≥ 3 µM | – |
| CC(C)C(=O)N1CC2(C1)OCc1cc(N3CCC(c4cc(Cl)c(Cl)c(Cl)c4)(C(F)(F)F)C3)ccc12 (stereo not shown) [Example 25] | > 3 µM | ≥ 3 µM | – |
| CS(=O)(=O)CC(=O)N1CC2(C1)OCc1cc(C3=NOC(c4cc(Cl)c(F)c(Cl)c4)(C(F)(F)F)O3)ccc12 (stereo not shown) [Example 27, 1-(5′-(5-(3,5-dichloro-4-fluorophenyl)-5-(trifluoromethyl)-1,4,2-dioxazol-3-yl)-3′H-spiro[azetidine-3,1′-isobenzofuran]-1-yl)-2-(methylsulfonyl)ethanone] | > 3 µM | ≥ 3 µM | – |
| CS(=O)(=O)CC(=O)N1CC2(C1)OCc1cc(C3=NOC(c4cc(Cl)cc(Cl)c4)(C(F)(F)F)O3)ccc12 (stereo not shown) [Example 29, 1-(5-(5-(3,5-dichlorophenyl)-5-(trifluoromethyl)-1,4,2-dioxazol-3-yl)-3′H-spiro[azetidine-3,1′-isobenzofuran]-1-yl)-2-(methylsulfonyl)ethanone] | > 3 µM | ≥ 3 µM | – |
| CC(C)C(=O)N1CC2(C1)OCc1cc(C3=NOC(c4cc(Cl)cc(Cl)c4)(C(F)(F)F)O3)ccc12 (stereo not shown) [Example 30, 1-(5-(5-(3,5-dichlorophenyl)-5-(trifluoromethyl)-1,4,2-dioxazol-3-yl)-3′H-spiro[azetidine-3,1′-isobenzofuran]-1-yl)-2-methylpropan-1-one] | – | ≥ 3 µM | 0.3 µg/mL |
| CS(=O)(=O)CC(=O)N1CC2(C1)OCc1cc(C3=NOC(c4cc(Cl)c(Cl)c(Cl)c4)(C(F)(F)F)O3)ccc12 (stereo not shown) [Example 32, 2-(methylsulfonyl)-1-(5′-(5-(3,4,5-trichlorophenyl)-5-(trifluoromethyl)-1,4,2-dioxazol-3-yl)-3′H-spiro[azetidine-3,1′-isobenzofuran]-1-yl)ethanone] | > 3 µM | ≥ 3 µM | – |
